Reference: ChEMBL document CHEMBL1150977, “A quantitative analysis of kinase inhibitor selectivity” (Nat Biotechnol, 2008)
pKd: −log10 of the molar value.

Experiments:
[1] = molecular target: Serine/threonine-protein kinase PLK3 (Homo sapiens, UniProt Q9H4B4)
[2] = molecular target: Platelet-derived growth factor receptor beta (Homo sapiens, UniProt P09619)
[3] = molecular target: Macrophage colony-stimulating factor 1 receptor (Homo sapiens, UniProt P07333)
[4] = molecular target: cAMP-dependent protein kinase catalytic subunit beta (Homo sapiens, UniProt P22694)
[5] = molecular target: T1, Dual specificity mitogen-activated protein kinase kinase 6 (Homo sapiens, UniProt P52564)
T1 sequence (P52564 whole entry): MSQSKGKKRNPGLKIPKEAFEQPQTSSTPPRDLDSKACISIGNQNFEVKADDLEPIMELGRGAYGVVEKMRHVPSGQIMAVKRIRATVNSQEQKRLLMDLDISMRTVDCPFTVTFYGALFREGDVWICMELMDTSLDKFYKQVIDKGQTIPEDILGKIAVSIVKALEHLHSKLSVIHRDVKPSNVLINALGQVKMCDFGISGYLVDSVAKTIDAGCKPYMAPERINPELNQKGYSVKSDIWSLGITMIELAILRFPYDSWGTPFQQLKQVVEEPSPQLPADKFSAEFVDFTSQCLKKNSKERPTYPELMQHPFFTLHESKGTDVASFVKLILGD

[6] = molecular target: Serine/threonine-protein kinase pim-3 (Homo sapiens, UniProt Q86V86)
[7] = molecular target: Cyclin-dependent kinase 14 (Homo sapiens, UniProt O94921)
[8] = molecular target: T2, Serine/threonine-protein kinase 17B (Homo sapiens, UniProt O94768)
T2 sequence (O94768 whole entry): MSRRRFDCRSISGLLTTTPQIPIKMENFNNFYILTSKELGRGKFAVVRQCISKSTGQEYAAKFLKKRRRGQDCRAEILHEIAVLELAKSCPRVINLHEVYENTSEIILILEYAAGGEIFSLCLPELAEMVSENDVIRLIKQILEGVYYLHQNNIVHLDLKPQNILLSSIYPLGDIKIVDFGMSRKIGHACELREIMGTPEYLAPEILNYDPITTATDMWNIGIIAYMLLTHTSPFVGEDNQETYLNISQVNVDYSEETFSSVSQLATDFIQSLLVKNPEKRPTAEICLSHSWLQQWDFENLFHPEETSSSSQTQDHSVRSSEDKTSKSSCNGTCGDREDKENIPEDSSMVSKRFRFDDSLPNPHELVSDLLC

[9] = molecular target: T3, Tyrosine-protein kinase receptor UFO (Homo sapiens, UniProt P30530)
T3 sequence (P30530 whole entry): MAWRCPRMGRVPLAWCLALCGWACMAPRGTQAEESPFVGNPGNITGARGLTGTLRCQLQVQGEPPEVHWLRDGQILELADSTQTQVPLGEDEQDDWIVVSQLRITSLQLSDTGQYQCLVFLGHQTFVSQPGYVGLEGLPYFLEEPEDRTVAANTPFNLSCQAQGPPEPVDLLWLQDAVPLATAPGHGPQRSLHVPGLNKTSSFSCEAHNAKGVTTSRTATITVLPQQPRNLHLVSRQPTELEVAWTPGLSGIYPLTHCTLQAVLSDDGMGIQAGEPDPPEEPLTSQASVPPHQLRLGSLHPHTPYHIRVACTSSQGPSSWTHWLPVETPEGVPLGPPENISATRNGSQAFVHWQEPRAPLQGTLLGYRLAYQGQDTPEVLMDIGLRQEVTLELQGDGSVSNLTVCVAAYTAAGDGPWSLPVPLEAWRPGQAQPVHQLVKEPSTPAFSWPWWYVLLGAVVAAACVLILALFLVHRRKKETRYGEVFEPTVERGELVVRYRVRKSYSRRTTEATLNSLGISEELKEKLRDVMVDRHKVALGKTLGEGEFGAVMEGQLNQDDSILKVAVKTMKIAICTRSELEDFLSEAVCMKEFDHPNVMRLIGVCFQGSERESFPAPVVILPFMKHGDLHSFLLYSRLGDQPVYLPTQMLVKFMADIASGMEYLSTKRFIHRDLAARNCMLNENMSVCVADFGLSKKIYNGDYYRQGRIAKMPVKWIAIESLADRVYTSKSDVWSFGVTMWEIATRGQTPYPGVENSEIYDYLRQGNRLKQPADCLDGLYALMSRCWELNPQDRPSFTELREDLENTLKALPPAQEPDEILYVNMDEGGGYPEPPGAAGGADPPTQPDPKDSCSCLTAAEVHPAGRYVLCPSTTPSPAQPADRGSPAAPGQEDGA

[10] = molecular target: Dual specificity tyrosine-phosphorylation-regulated kinase 1B (Homo sapiens, UniProt Q9Y463)
Ephrin type-A receptor 5 = Ephrin type-A receptor 5 (Homo sapiens, UniProt P54756)
[11] = molecular target: Myosin light chain kinase 2, skeletal/cardiac muscle (Homo sapiens, UniProt Q9H1R3)
[12] = molecular target: T4, Tyrosine-protein kinase TXK (Homo sapiens, UniProt P42681)
T4 sequence (P42681 whole entry): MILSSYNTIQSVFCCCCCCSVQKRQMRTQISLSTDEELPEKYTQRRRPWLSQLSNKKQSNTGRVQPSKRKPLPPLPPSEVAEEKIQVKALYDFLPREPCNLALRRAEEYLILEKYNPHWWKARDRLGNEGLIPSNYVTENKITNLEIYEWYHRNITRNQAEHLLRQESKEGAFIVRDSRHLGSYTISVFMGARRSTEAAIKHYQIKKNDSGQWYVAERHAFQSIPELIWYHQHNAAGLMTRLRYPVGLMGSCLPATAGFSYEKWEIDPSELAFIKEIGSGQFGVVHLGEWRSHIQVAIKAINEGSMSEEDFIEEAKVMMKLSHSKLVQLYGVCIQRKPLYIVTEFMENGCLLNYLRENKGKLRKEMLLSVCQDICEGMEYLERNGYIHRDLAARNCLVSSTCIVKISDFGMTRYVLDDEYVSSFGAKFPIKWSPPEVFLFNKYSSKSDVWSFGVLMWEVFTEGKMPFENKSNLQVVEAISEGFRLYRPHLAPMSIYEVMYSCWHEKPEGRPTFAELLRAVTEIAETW

[13] = molecular target: Dual specificity mitogen-activated protein kinase kinase 1 (Homo sapiens, UniProt Q02750)

Platelet-derived growth factor receptor beta, sequence (P09619 whole entry): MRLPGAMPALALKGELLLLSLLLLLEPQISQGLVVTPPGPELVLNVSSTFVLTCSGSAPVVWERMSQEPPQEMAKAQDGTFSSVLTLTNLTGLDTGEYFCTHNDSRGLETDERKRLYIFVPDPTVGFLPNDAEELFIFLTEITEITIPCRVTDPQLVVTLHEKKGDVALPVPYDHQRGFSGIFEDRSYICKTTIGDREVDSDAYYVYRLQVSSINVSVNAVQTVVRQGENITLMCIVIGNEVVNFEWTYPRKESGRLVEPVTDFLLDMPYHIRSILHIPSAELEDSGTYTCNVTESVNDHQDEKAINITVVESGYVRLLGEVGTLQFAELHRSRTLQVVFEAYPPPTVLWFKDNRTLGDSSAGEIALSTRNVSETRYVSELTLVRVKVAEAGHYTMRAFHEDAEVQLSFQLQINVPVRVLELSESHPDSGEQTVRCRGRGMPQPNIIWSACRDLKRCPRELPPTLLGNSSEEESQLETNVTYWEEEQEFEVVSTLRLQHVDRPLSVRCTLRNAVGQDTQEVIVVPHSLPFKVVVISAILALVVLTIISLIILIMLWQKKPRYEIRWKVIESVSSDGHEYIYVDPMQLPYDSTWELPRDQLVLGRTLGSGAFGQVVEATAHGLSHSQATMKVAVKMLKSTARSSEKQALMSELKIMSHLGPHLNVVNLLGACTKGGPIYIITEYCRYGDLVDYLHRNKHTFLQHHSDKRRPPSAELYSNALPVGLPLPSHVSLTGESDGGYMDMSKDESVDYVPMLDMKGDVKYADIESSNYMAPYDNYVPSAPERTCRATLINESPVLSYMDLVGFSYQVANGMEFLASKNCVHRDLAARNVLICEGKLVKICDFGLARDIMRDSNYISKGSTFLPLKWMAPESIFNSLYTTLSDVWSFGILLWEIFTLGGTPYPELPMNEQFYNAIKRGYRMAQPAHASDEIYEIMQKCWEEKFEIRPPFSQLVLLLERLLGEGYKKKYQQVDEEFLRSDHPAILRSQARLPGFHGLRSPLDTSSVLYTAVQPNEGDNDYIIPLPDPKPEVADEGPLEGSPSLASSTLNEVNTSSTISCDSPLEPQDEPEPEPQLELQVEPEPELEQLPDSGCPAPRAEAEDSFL
Serine/threonine-protein kinase PLK3, sequence (Q9H4B4 whole entry): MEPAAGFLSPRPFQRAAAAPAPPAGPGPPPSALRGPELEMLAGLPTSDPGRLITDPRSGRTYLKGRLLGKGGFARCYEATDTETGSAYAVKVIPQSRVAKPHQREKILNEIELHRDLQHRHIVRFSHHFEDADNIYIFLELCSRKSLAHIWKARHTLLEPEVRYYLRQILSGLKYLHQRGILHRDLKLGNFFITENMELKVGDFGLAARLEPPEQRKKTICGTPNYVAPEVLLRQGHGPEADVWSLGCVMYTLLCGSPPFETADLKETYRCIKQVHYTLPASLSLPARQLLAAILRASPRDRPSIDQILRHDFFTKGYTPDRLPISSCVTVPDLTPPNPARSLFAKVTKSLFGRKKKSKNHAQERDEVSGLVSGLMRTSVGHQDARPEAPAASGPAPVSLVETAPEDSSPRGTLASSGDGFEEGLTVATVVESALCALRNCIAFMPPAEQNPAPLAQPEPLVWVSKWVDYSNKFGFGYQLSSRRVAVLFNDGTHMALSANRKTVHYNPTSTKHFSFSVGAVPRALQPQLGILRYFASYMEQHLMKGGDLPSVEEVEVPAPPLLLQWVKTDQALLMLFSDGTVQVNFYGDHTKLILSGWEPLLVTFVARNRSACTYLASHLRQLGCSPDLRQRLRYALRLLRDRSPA
Myosin light chain kinase 2, skeletal/cardiac muscle, sequence (Q9H1R3 whole entry): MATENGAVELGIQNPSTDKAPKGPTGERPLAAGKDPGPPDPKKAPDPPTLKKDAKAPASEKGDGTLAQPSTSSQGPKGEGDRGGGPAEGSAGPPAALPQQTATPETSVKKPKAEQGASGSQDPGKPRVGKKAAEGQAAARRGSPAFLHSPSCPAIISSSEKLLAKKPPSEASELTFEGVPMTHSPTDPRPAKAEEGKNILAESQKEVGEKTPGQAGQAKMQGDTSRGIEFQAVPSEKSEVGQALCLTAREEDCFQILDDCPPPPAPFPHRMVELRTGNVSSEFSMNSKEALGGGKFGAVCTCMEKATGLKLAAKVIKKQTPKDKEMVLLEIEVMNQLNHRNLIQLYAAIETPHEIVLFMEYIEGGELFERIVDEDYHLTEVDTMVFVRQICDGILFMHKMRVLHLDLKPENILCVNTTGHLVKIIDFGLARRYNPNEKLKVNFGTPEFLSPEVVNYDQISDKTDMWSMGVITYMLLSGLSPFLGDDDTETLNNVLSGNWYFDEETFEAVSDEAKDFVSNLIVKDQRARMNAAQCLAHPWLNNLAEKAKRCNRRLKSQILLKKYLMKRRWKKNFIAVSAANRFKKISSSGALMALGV
Cyclin-dependent kinase 14, sequence (O94921 whole entry): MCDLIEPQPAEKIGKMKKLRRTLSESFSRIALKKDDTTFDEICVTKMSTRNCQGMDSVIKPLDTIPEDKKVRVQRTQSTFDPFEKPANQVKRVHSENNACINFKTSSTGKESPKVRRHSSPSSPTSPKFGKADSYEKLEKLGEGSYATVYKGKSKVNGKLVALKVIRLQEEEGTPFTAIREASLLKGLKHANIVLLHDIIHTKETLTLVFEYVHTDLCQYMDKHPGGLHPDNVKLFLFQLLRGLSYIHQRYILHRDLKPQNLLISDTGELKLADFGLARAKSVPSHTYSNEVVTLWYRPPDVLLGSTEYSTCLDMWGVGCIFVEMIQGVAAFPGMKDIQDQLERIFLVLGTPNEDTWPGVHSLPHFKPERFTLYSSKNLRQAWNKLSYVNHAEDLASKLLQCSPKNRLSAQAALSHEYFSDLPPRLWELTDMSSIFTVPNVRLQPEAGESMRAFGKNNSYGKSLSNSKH
Ephrin type-A receptor 5, sequence (P54756 whole entry): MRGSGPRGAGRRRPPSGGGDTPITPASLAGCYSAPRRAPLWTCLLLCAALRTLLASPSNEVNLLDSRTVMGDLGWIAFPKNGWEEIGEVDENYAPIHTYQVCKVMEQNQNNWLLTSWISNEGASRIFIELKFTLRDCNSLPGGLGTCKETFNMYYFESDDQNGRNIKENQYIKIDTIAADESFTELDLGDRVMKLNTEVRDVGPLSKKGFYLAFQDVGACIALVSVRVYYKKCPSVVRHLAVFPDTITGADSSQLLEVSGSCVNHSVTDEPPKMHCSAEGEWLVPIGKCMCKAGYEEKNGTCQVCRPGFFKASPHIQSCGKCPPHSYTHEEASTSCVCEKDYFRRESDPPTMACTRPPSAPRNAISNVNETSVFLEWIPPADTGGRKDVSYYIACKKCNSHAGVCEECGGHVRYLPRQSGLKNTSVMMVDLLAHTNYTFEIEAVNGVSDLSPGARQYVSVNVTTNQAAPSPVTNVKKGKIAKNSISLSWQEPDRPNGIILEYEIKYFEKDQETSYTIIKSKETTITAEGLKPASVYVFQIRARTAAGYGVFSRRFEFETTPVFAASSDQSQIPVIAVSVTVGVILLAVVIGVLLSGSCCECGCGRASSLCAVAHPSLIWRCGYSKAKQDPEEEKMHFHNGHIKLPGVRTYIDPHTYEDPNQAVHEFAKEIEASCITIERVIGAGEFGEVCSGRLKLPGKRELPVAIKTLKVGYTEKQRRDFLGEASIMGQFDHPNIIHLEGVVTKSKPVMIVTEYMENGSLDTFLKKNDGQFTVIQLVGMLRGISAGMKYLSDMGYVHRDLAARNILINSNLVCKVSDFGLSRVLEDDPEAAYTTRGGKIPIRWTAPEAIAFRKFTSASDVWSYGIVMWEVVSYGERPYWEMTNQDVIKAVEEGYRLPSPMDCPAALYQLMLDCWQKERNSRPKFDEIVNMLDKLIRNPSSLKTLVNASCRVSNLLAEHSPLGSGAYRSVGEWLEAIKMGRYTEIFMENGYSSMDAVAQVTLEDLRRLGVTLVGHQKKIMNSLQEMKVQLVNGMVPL
Dual specificity tyrosine-phosphorylation-regulated kinase 1B, sequence (Q9Y463 whole entry): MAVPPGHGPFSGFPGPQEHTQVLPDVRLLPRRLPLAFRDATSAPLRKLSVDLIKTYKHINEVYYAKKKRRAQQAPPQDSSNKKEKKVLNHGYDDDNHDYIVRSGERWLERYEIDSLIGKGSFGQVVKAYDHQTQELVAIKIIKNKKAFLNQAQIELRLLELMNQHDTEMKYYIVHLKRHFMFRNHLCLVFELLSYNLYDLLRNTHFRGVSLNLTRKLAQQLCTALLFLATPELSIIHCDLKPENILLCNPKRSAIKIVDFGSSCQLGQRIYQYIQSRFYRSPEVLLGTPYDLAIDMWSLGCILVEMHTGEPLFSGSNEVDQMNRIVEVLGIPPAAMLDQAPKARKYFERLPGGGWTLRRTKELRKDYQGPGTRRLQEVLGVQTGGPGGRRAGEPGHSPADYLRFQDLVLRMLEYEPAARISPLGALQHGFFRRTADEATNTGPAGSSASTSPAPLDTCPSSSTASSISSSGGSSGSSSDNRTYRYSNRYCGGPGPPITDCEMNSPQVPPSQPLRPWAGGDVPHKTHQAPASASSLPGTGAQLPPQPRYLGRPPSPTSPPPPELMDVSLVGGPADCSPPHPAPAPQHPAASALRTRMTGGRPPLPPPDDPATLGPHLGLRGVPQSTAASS

SMILES: CCN1CCN(Cc2ccc(NC(=O)Nc3ccc(Oc4cc(NC)ncn4)cc3)cc2C(F)(F)F)CC1 [AST-487]
- pKd [1]: < 5.00

SMILES: COCC(=O)NC/C=C/c1ccc2ncnc(Nc3ccc(Oc4ccc(C)nc4)c(C)c3)c2c1 [CP-724714]
- pKd [2]: < 5.00
- pKd [3]: < 5.00
- pKd [4]: < 5.00
- pKd [5]: < 5.00
- pKd [6]: < 5.00
- pKd [7]: < 5.00
- pKd [8]: < 5.00
- pKd [9]: < 5.00
- pKd [10]: < 5.00
- pKd (Ephrin type-A receptor 5): < 5.00
- pKd [1]: < 5.00
- pKd [11]: < 5.00
- pKd [12]: < 5.00
- pKd [13]: < 5.00

SMILES: Nc1nc(Nc2ccc(S(N)(=O)=O)cc2)nn1C(=O)c1c(F)cccc1F [JNJ-7706621]
- pKd [4]: < 5.00
- pKd [6]: < 5.00
- pKd [7]: 5.44
- pKd [8]: < 5.00
- pKd [10]: < 5.00
- pKd (Ephrin type-A receptor 5): < 5.00
- pKd [11]: < 5.00
- pKd [12]: < 5.00

SMILES: CCOc1cc2ncc(C#N)c(Nc3ccc(F)c(Cl)c3)c2cc1NC(=O)/C=C/CN(C)C [PELITINIB]
- pKd [2]: < 5.00
- pKd [4]: < 5.00
- pKd [5]: < 5.00
- pKd [6]: < 5.00
- pKd [7]: < 5.00
- pKd [9]: 6.04
- pKd (Ephrin type-A receptor 5): < 5.00
- pKd [1]: < 5.00
- pKd [12]: 5.26

SMILES: Oc1ccc(-c2nc(-c3ccncc3)c(-c3ccc(F)cc3)[nH]2)cc1 [SB-202190]
- pKd [2]: < 5.00
- pKd [3]: < 5.00
- pKd [4]: 6.28
- pKd [5]: < 5.00
- pKd [6]: < 5.00
- pKd [7]: < 5.00
- pKd [8]: < 5.00
- pKd [9]: < 5.00
- pKd [10]: < 5.00
- pKd (Ephrin type-A receptor 5): < 5.00
- pKd [1]: < 5.00
- pKd [11]: < 5.00
- pKd [12]: < 5.00
- pKd [13]: < 5.00

SMILES: NC(=O)c1ccc(-c2nc(-c3ccc4c(c3)OCO4)c(-c3ccccn3)[nH]2)cc1 [SB-431542]
- pKd [2]: < 5.00
- pKd [3]: < 5.00
- pKd [4]: < 5.00
- pKd [5]: < 5.00
- pKd [6]: < 5.00
- pKd [7]: < 5.00
- pKd [8]: < 5.00
- pKd [9]: < 5.00
- pKd [10]: < 5.00
- pKd (Ephrin type-A receptor 5): < 5.00
- pKd [1]: < 5.00
- pKd [11]: < 5.00
- pKd [12]: < 5.00
- pKd [13]: < 5.00
